From patent EP4664463A1, “COMPUTER-IMPLEMENTED METHOD FOR OLFACTORY PROPERTY PREDICTION” (Givaudan SA, priority 2024, dated 2025)
Where two headings read alike, the source gives them in different places.

Legend:
[1] = tested on: library of all class II OR with modified C-terminal domain RNKEVKKAIKRLFKRKCCRRR (SEQ ID NO: 221); test: Screening of the library of all class II OR with single odorants (luciferase); type: cell-based, human; details: full class II OR library (n = 408); maximal non-cytotoxic concentration
Protocol: All human class II OR and all key genetic variants of these OR were synthesized with a sequence coding for an identical modified C-terminal domain […] (SEQ ID NO: 221) in the vector pcDNA3.1(+) to generate a library of all class II OR with an improved C-terminal domain. Class II OR library members with modified C-terminal domains
Parallel transfection experiments were conducted with all these plasmids (n = 408) and cells expressing the different OR were stimulated with one given ligand at a time, tested at the maximal, clearly non-cytotoxic concentration. In total 26 different ligands were tested on the full library of class II receptors.

[2] = target: T1, OR identified in the library screening (receptor named per line) (Homo sapiens, UniProt Q8NG80); test: Confirmatory dose-response of library hits, wild-type OR vs OR with C-terminus SEQ ID NO: 221 (Table 17); type: cell-based; details: receptor OR2L5, wild-type sequence; read-out: Potency EC50 wild-type (converted)
T1 construct: expressed in transfected cells; host or cells: HEK293T stably expressing human RTP1S(V227I) and RTP2(L220R) (general method)
Protocol: (§2) Selected ligand - OR pairs were then tested in a confirmatory test with a dose response analysis.
(§3) Dose-response analysis with the cognate ligand was then performed for both the wild-type and the modified sequence.

[3] = tested on: OR52A5; test: cell-based; type: cell-based, human
From the text: (§1) To create an expression plasmid, an OR coding sequence fused at the end of TM7 to the desired C-terminus sequence was synthesized by a DNA synthesis service provider (BioCat GmbH, Germany) and inserted into pcDNA3.1(+) (Invitrogen, MA, USA) downstream of the CMV promoter sequence (SEQ ID NO: 82) using BamHI and Notl restriction sites. All the synthetic OR nucleotide sequences described below in Examples 1-15 further contained at their N-terminus a nucleotide sequence encoding a signal peptide (mmLucy-FLAG-rho, SeQ ID NOs: 80, 81) and at the C-terminus the bgh terminator sequence (SEQ ID NO: 83). All the OR expression plasmids also contain a Kozak sequence (GCCACC) between the BamHI restriction site and the start codon of the signal peptide. These plasmids thus contain a constitutively expressed OR gene.

[4] = target: T2, OR52A5 (Homo sapiens, UniProt Q9H2C5); test: cell-based; type: cell-based
T2 construct: expressed in transfected cells; host or cells: HEK293T cells stably expressing human RTP1S (V227I) and RTP2 (L220R)
From the text: as §1
T2 sequence (Q9H2C5 whole entry): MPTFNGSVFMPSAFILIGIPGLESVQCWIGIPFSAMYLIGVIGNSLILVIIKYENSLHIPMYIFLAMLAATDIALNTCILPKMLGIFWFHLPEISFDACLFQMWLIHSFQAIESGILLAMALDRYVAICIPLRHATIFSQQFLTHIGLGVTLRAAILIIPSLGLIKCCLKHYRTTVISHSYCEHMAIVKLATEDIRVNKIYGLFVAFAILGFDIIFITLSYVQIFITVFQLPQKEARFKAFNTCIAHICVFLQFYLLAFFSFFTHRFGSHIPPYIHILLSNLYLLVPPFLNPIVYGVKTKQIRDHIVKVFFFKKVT

[5] = target: T3, OR52A5 (Homo sapiens, UniProt Q9H2C5); test: cell-based; type: cell-based; remark: listed apart in the source
T3 construct: expressed in transfected cells; host or cells: HEK293T cells stably expressing human RTP1S (V227I) and RTP2 (L220R)
From the text: as §1
T3 sequence (Q9H2C5 with tags, fused parts or gaps): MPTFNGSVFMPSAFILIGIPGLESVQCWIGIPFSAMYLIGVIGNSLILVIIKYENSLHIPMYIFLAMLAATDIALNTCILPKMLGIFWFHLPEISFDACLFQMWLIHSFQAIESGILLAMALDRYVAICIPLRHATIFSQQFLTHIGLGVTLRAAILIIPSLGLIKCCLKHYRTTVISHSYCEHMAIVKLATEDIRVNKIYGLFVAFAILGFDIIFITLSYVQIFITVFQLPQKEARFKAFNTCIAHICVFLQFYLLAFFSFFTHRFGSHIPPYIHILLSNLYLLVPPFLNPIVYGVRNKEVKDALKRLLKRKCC

[6] = target: T4, OR identified in the library screening (receptor named per line) (Homo sapiens, UniProt Q8NGJ0); test: Confirmatory dose-response of library hits, wild-type OR vs OR with C-terminus SEQ ID NO: 221 (Table 17); type: cell-based
T4 construct: expressed in transfected cells; host or cells: HEK293T stably expressing human RTP1S(V227I) and RTP2(L220R) (general method)
Protocol: as §2, §3

[7] = tested on: OR2T4; test: cell-based; type: cell-based, human
[8] = target: T5, OR2T4 (Homo sapiens, UniProt Q8NH00, D328E/G331D/M330K); test: cell-based; type: cell-based
T5 construct: expressed in transfected cells; host or cells: HEK293T cells stably expressing human RTP1S (V227I) and RTP2 (L220R)
T5 sequence (Q8NH00 with tags, fused parts or gaps D328E/M330K/G331D): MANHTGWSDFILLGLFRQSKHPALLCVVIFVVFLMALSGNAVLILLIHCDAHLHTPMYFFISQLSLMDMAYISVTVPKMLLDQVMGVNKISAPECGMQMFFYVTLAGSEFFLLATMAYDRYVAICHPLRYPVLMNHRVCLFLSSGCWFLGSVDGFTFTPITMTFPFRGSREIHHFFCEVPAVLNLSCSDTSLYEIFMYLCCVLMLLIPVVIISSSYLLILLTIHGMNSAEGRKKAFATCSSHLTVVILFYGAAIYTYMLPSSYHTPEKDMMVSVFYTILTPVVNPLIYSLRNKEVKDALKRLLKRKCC

[9] = target: T6, OR2T4 (Homo sapiens, UniProt Q8NH00); test: cell-based; type: cell-based
T6 construct: expressed in transfected cells; host or cells: HEK293T cells stably expressing human RTP1S (V227I) and RTP2 (L220R)
T6 sequence (Q8NH00 35-348): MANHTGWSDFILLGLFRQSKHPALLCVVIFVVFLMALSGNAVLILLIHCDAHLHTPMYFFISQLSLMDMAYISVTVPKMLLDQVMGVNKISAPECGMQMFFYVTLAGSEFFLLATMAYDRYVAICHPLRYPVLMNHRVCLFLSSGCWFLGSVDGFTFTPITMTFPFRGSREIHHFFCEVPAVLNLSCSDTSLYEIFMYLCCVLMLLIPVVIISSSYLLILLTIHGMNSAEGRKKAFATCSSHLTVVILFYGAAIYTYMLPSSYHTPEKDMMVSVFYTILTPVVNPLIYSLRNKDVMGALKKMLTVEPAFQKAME

[10] = target: T7, OR identified in the library screening (receptor named per line) (Homo sapiens, UniProt Q8WZ84); test: Confirmatory dose-response of library hits, wild-type OR vs OR with C-terminus SEQ ID NO: 221 (Table 17); type: cell-based; details: receptor OR8D1, wild-type sequence; read-out: Potency EC50 wild-type (converted)
T7 construct: expressed in transfected cells; host or cells: HEK293T stably expressing human RTP1S(V227I) and RTP2(L220R) (general method)
Protocol: as §2, §3

[11] = target: T8, OR9Q2 (Homo sapiens, UniProt Q8NGE9); test: Luciferase dose-response, wild-type vs changed C-terminus (SEQ ID NO: 86); type: cell-based; details: changed C-term SEQ ID NO: 86; read-out: Potency EC50
T8 construct: expressed in transfected cells; host or cells: HEK293T cells stably expressing human RTP1S (V227I) and RTP2 (L220R)
T8 sequence (Q8NGE9 with tags, fused parts or gaps): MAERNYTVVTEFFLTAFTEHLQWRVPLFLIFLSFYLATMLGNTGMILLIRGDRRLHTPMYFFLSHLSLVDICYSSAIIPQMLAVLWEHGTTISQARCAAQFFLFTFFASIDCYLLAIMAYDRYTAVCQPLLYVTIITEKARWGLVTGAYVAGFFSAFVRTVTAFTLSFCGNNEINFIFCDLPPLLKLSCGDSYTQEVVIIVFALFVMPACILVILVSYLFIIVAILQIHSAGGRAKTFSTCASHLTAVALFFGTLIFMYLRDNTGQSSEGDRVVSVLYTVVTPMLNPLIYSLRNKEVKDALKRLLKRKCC

[12] = target: T9, OR9Q2 (Homo sapiens, UniProt Q8NGE9); test: as above; type: cell-based; details: wild-type; read-out: Potency EC50
T9 construct: expressed in transfected cells; host or cells: HEK293T cells stably expressing human RTP1S (V227I) and RTP2 (L220R)
T9 sequence (Q8NGE9 whole entry): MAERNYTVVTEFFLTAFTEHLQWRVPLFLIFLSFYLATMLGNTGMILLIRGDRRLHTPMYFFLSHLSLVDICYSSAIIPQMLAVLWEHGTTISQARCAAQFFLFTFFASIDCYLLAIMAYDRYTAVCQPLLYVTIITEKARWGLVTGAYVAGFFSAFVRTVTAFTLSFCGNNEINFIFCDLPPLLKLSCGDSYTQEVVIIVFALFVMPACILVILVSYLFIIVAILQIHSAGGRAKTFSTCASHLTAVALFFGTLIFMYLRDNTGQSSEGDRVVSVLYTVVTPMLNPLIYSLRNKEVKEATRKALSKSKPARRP

[13] = tested on: library of all class I OR with C-terminal domain RNKQIRDALKRLLKRKCCRRR (SEQ ID NO: 741); test: Screening of the library of all class I OR with carboxylic acid ligands (luciferase); type: cell-based, human; details: full class I OR library (n = 77)
Protocol: All human class I OR and all key genetic variants of these OR were synthesized with a sequence coding for the identical C-terminal domain […] (SEQ ID NO: 741) in the vector pcDNA3.1(+) to generate a library of all class I OR with an improved C-terminal domain. Class I OR library members
Parallel transfection experiments were conducted with all these plasmids (n = 77, SEQ ID NO: 760, OR51F1 was excluded due to poor plasmid yield) and cells expressing the different OR were stimulated with one given ligand at a time. In total 10 different carboxylic acids ligands were tested on the full library of class I receptors.

[14] = changed C-term SEQ ID NO: 86, read-out: Potency EC50

**Q.** With `O=C(OCc1ccccc1)c1ccccc1O` [Benzyl salicylate] as the molecule, how does the “Activated OR and OR variants” value [1] read?
**A.** OR2AG2(Y28C)

**Q.** How did the EC50 [2] turn out when `CCOC(=O)C1CCCCC1` [Ethyl cyclohexanecarboxylate (Esterly), Ethyl cyclohexanecarboxylate] was run?
**A.** 115 µM

**Q.** For `CCCCC(CC)CCC(=O)O` (centres unmarked) [4-ethyloctanoic acid], which Comments on efficacy [3] is on record?
**A.** 2.5-fold lower maximal induction for wild-type

**Q.** And the Fold-improvement threshold [3]?
**A.** >10

**Q.** What about the “Detection threshold; concentration for 2-fold induction” value [4] of the same molecule?
**A.** >1000 µM

**Q.** What about the “Detection threshold; concentration for 2-fold induction” value [5] of the same molecule?
**A.** 101 µM

**Q.** What about the EC50 [5, 14] of the same molecule?
**A.** 300 µM

**Q.** How did the EC50 [6] turn out when `CC(=O)/C=C/C1=C(C)CCCC1(C)C` [β-lonone] was run?
**A.** 48.3 µM

**Q.** For `SC1CCCC1` [Cyclopentanethiol], which Comments on efficacy [7] is on record?
**A.** No induction wild-type

**Q.** What about the Fold-improvement potency [7] of the same molecule?
**A.** >>2

**Q.** What about the Fold-improvement threshold [7] of the same molecule?
**A.** >>100

**Q.** And the “Detection threshold; concentration for 2-fold induction” value [8]?
**A.** 3.89 µM

**Q.** And the “ligands identified in screening of sulfur odorants” value ([8]; OR2T4 with SEQ ID NO: 86)?
**A.** good ligands

**Q.** What about the EC50 [8, 14] of the same molecule?
**A.** 14.6 µM

**Q.** And the “Detection threshold; concentration for 2-fold induction” value [9]?
**A.** n.i. (>> 316) µM

**Q.** What about the EC50 ([9]; wild-type, read-out: Potency EC50) of the same molecule?
**A.** > 316 µM

**Q.** For `CC1=C(O)C(=O)OC1C` (centres unmarked) [Sotolon e], which EC50 [10] is on record?
**A.** 19 µM

**Q.** How did the EC50 [11] turn out when `Cc1ccc(O)cc1` [Para-Cresol] was run?
**A.** 2.8 µM

**Q.** And the EC50 [12]?
**A.** 30.7 µM

**Q.** `CCC=C(C)C(=O)O` [2-Methyl-2-pentenoic acid] was tested. Which “Activated OR and OR variants” value [13] did it give?
**A.** No activation observed
